Measured values reported in US20240262934A1, “STARCH-INDOLE-ACID DERIVATIVE, PREPARATION METHOD THEREFOR, AND USE THEREOF” (SHANDONG SHANWEI IMMUNOTECH CO., LTD., priority 2021, published 2024).
Read-outs that look alike come from different tables or passages of the source. Blank lines part the entries; values can stand above or below the compound they belong to.

Key:
[1] = Concentration of IAA/IPA in colonic contents for different modes of administration; conditions: for concentration of IAA in feces (colonic contents, FIG. 8), improvement compared with the control group: 0.068 mmol IAANa
Procedure: (§1) A high performance liquid chromatography-tandem mass spectrometry (HPLC-MS/MS) technique was used to detect the content of metabolites IAA/IPA in each sample separately. Determination of the content of IAA/IPA in mouse feces: methanol was added into the collected feces, then vortexing, ultrasound extraction, and centrifuging were performed, a supernatant was taken to obtain an extract, the obtained extract was treated, IAA/IPA internal standards (IAA-d5/IPA-d2) were added for calibration, then purification was performed by using a small HLB solid-phase extraction column (pretreated with 5 mL of methanol and 5 mL water, then rinsed with 5 mL of a methanol/water mixed solution and 5 mL of water, an effluent being discarded, and finally eluted with 5 mL of methanol before use), and an eluate was analyzed by HPLC-MS/MS to detect IAA/IPA. Determination of the content of IAA/IPA in the hepatic portal blood and the peripheral blood: whole blood collected was allowed to stand and centrifuged at low temperature, and a supernatant was taken to obtain serum, and then an internal standard was added into the serum, purification was performed by using a solid-phase extraction column, and metabolites IAA/IPA in an eluate were detected by HPLC-MS/MS by the same method as described above. Determination of the content of IAA/IPA in the colon tissues: methanol was added into colon tissues collected, ultrasonically disrupted and further uniformly ground, then vortexing, ultrasound extraction, and centrifuging were performed, a supernatant was taken to obtain an extract, and then an internal standard was added into serum, purification was performed by using a solid-phase extraction column, and the concentration of IAA/IPA in the extract was detected by HPLC-MS/MS by the same method as described above.
(§2) The experiments were divided into 5 groups in total: • 1. Blank control group; • 2. […] IAANa-containing water drinking group (with the IAANa concentration of 2.68 mg/mL, average daily drinking of 5 mL of water per mouse, and a total intake of 0.068 mmol IAANa); • 4. Gavage group (with the IAANa concentration of 67 mg/mL, daily gavage of 0.2 mL, and a total intake of 0.068 mmol IAANa); and • 5. Intraperitoneal injection group (with the IAANa concentration of 67 mg/mL, daily injection of 0.2 mL, and a total intake of 0.068 mmol IAANa).

[2] = Concentration of IAA in hepatic portal blood serum for different modes of administration; type: in vivo, mice
Excerpt: Blank control group; • 2.

[3] = Concentration of IPA in feces of mice fed HAMSIPA feed; type: in vivo; conditions: 15% and 1.5% in feed, one week
Procedure: Indole acid derivatized starches with different degrees of substitution were added to a mouse feed in a ratio of 15% and 1.5%, respectively, and feces were taken to test the IPA content after mice were fed with a special feed prepared for one week.

[4] = system: dextran sulfate sodium (DSS)-induced acute ulcerative colitis; assay: DSS-induced acute ulcerative colitis in mice: body weight, colon length, DAI, colon status, tissue sections; type: in vivo; conditions: tested as 15% HAMSIAA-0.49 in feed
Procedure: After the end of the experiment, a disease active index (DAI) of mice was evaluated, mouse colons were taken to measure their lengths, and a colon status of the mice was evaluated by sectioning, and the levels of cytokines IL-10, IL-6, IL-22, etc. in colon tissues of the mice were detected. The effect of […] on the prevention and treatment of DSS-induced acute ulcerative colitis in mice was finally evaluated by these indicators.

[5] = system: Systemic lupus erythematosus model (MRL/lpr); assay: Systemic lupus erythematosus model mice: kidney pathology, skin damage, spleen and lymph nodes; type: in vivo; conditions: 1.5% HAMSIAA-0.32 in feed, 14 weeks
Procedure: • 1. Mouse food was prepared from the prepared […] in a certain addition ratio, and SLE model mice and control mice were purchased from Changzhou Cavens Experimental Animal Co., Ltd, aged 4-6 weeks. All mice were randomly divided into 4 groups: • Control group (MRL/MPJ); • Systemic lupus erythematosus model group (MRL/lpr); • Prednisone group (MRL/lpr+Prednisone); and • […] group ([…]). The […] group was given a special feed in which […] was added in a certain proportion for 14 weeks. Kidney tissues were collected after the end of the experiment. • 2. […] After the experiment, the spleens, cervical lymph nodes, and perirenal lymph nodes of each group for mice in this embodiment were collected.

[6] = system: ANA, Anti-dsDNA lgG2a, and Anti-Smith immune antibodies; assay: Serum immune antibodies in SLE mice by ELISA; type: in vivo; conditions: MRL/lpr mice; 1.5% HAMSIAA-0.32; after one month of treatment and after the experiment
Excerpt: After one month of treatment with HAMSIAA, blood serum samples from each group for mice were collected once. After the experiment, blood serum samples from each group of mice were collected again. The expression levels of ANA, Anti-dsDNA lgG2a, and Anti-Smith immune antibodies in the blood serum were detected by ELISA technique.

[7] = system: B cells and CD4+CXCR5+ Tfh in the spleen of MRL/lpr mice; assay: B cells, Tfh cells and BAFF in spleens of SLE mice; type: in vivo; conditions: 1.5% HAMSIAA-0.32, after the experiment
Procedure: After the experiment, the expression levels of CD3^− B220^+ B cells, B220^+IgM^+ B cells, B220^+CD138^+ B cells, and B220^+IgD^+ B cells in the spleen for mice in each group in this embodiment were tested. […] Wherein,
After the experiment, the expression levels of CD4^+CXCR5^+ Tfh in the spleens for mice in each group and BAFF in mice in each group in this Example were tested.

[8] = system: TNF-α, IFN-γ, IL-4, IFN-α, IL-6 and IL-22; assay: Serum cytokine content in SLE mice; type: in vivo; conditions: MRL/lpr mice; 1.5% HAMSIAA-0.32; after the experiment
[9] = mouse, in vivo
Procedure: as §1, §2

[10] = system: cytokines IL-10, IL-6, IL-1, IL-22 in mouse colon tissue; assay: Cytokine levels in colon tissue of DSS colitis mice; type: in vivo; conditions: 1.5% HAMSIAA-0.32 in feed, vs model group
Procedure: After the end of the experiment, a disease active index (DAI) of mice was evaluated, mouse colons were taken to measure their lengths, and a colon status of the mice was evaluated by sectioning, and the levels of cytokines IL-10, IL-6, IL-22, etc. in colon tissues of the mice were detected.

[11] = IAANa-containing drinking water

- concentration of IPA in the colonic contents compared with the control group [1, 11]: not significantly changed
- concentration of IAA in feces (colonic contents, FIG. 8), improvement compared with the control group ([1]; IAANa-containing drinking water, 2.68 mg/mL): about 30 times
- concentration of IPA in the colonic contents compared with the control group ([1]; gavage): not significantly changed
- concentration of IAA in feces (colonic contents, FIG. 8), improvement compared with the control group ([1]; gavage, 67 mg/mL, 0.2 mL daily): about 7 times
- concentration of IPA in the colonic contents compared with the control group ([1]; intraperitoneal injection): not significantly changed
- concentration of IAA in feces (colonic contents, FIG. 8), improvement compared with the control group ([1]; intraperitoneal injection, 67 mg/mL, 0.2 mL daily): about 7 times
- concentration of IAA in the hepatic portal blood compared with the control group [2, 11]: significant increase
- concentration of IAA in the hepatic portal blood compared with the control group ([2]; gavage): significant increase
- concentration of IAA in the hepatic portal blood compared with the control group ([2]; intraperitoneal injection): significant increase
Compound: O=C([O-])Cc1c[nH]c2ccccc12.[Na+] [IAANa]

Compound: Indolepropionic Acid Derivatized High-Amylose Maize Starch [HAMSIPA]
- concentration of IPA in the feces compared with the HAMS group [3]: significantly increased

Compound: indoleacetic acid derivatized high-amylose maize starch [HAMSIAA]
- severity of DSS-induced ulcerative colitis [4]: effectively alleviate
- HE staining of kidney tissues (glomerular volume, cellular proliferation, inflammatory cell infiltration) [5]: alleviated
- Renal interstitial scores (renal interstitial nephritis) [5]: significantly attenuates
- cervical lymph node weight (lymph nodes enlargement) [5]: significantly reduce
- glomerular scores (glomerular injury) [5]: significantly attenuates
- glomerulonephritis and interstitial nephritis / symptoms in SLE mice compared with the SLE mouse model group [5]: effectively alleviate
- perirenal lymph node weight (lymph nodes enlargement) [5]: significantly reduce
- scores of the degree of skin damage [5]: significantly reduces
- expression level of ANA in blood serum [6]: significantly reduce
- expression level of Anti-Smith in blood serum [6]: significantly reduce
- expression level of Anti-dsDNA lgG2a in blood serum [6]: significantly reduce
- expression level (concentration) of BAFF [7]: inhibit
- expression level of CD4+CXCR5+ Tfh in the spleen [7]: inhibit
- proliferation and differentiation of B cells in the spleen (CD3− B220+ B cells) [7]: inhibit
- proportion of B220+CD138+ B cells (plasma cells) in the spleen [7]: reduce
- proportion of B220+IgD+ B cells in the spleen [7]: increase
- proportion of B220+IgM+ B cells in the spleen [7]: increase
- IFN-α expression level in blood serum [8]: significantly reduce
- IFN-γ expression level in blood serum [8]: significantly reduce
- IL-4 expression level in blood serum [8]: significantly reduce
- IL-6 expression level in blood serum [8]: significantly reduce
- TNF-α expression level in blood serum [8]: significantly reduce
- expression level of the anti-inflammatory cytokine IL-22 in blood serum [8]: promotes
- concentration of IPA in the colonic contents compared with the control group [9]: significantly increased
- level of anti-inflammatory cytokine IL-10 in the colon tissue ([10]; FIG. 17): significantly increased
- level of pro-inflammatory cytokine IL-6 in the colon tissue ([10]; FIG. 18): significantly reduced
- level of pro-inflammatory cytokine in the colon tissue ([10]; FIG. 19): significantly reduced
- content of IL-22 in the colon tissue ([10]; FIG. 21): significantly increased
